Key:
Type in all cases: in vivo, C57BL6 mice
[1] = Body weight of mice pre-treated with compositions, DSS-induced colitis
Description: In this experiment, C57BL6 mice were employed for the following reasons. The experimental animals are widely used throughout the world and are evaluated as being suitable for validity assays. In addition, because a great amount of fundamental test data on various disease models of the animals has been accumulated, the data can be utilized in analyzing and assessing test results. When purchased from OrientBio Inc. the experimental animals weighed 18 g±20%. They were bred under a light intensity of 150˜300 Lux in the controlled condition of 12:12-h light-dark cycles, with at least 10 ventilation rounds per hour.
(§1) For use in testing therapeutic effects of the agents of Examples, Comparative Examples, and Control Examples, the mice (G1 to G7) were fed with a 2.5 wt % aqueous dextran sodium sulfate (DSS) solution to induce inflammatory bowel disease therein.
Weights are expressed as mean±standard deviation.
From Jan. 12, 2012, the mice were allowed to drink an aqueous DSS 2.5 wt % solution for 7 days. DSS-induced diarrhea or hematochezia caused mice in groups G2 to G7 to lose weight, as compared at the point of DSS treatment.

[2] = system: COX-2; test: COX-2 expression in colon tissue by immunofluorescence
Description: as §1
The immunofluorescence of COX-2 was performed on paraffin unstained slides of animal tissues.

[3] = Side effects of S-allyl-L-cysteine
From the text: Cyclosporine or prednisolone, which are […] used to treat colitis thanks to their immunosuppressive effects, are reported to have the side effect of weight gain.
The anti-inflammatory agents including mesalizine or mesalazine, NSAIDs, etc. are known to cause various side effects such as hypersensitive reactions, nausea, vomiting, headache, etc.

[4] = system: dextran sodium sulfate (DSS)-induced colitis mouse models; test: Disease Activity Index (DAI) score, DSS-induced colitis
From the text: as §1
(§2) At the end of the test, Disease Activity Index (DAI) Scores were made in consideration of the degree of hematochezia and diarrhea, and are depicted in FIG. 3. In the graph, # represents significance (p<0.0001) compared to the normal (G1), and * represents significance (p<0.05), compared to the colitis animal model.

[5] = system: dextran sodium sulfate (DSS)-induced colitis mouse models; test: Colon length from cecum to end of colon, DSS-induced colitis; conditions: G3 to G6 (12.5-100 mg/kg) compared to Comparative Example, with statistical significance, FIG. 4
From the text: as §1
After 7 days of DSS drinking, the mice were sacrificed in an ether anesthetized condition, and the colon was excised.
as §2

[6] = system: dextran sodium sulfate (DSS)-induced colitis mouse models; test: Pathological observation of colon by H&E staining, total pathologic score
Description: as §1
Colon specimens taken were fixed in a 10% formalin solution and stained with hematoxylin & eosin (H&E stain), and their images are given in FIG. 5. Further, they were evaluated through a blind test under the criteria of a total of six histopathological opinions on inflammation (inflammation, follicle aggregation, oedema, erosion/ulceration, crypt loss, and infiltration of mono- and polymorphonuclear cells), and scored. Total pathologic scores obtained by summing up scores for each items and for the six opinions are depicted in FIG. 6.

[7] = system: IL-1β; test: Level of inflammatory cytokine IL-1β; conditions: G3 to G6 (12.5-100 mg/kg), FIG. 7, equivalency to control G7
Description: as §1
(§3) Levels of IL-1β IL-6, IL-12, and TNF-α, which are representative inflammation-inducing cytokines, were measured. […] The observation results are depicted in […].

[8] = system: IL-6; test: Level of inflammatory cytokine IL-6; conditions: G3 to G6 (12.5-100 mg/kg), FIG. 8, equivalency to control G7
Description: as §1, §3

[9] = system: TNF-α; test: Level of inflammatory cytokine TNF-α; conditions: G3 to G6 (12.5-100 mg/kg), FIG. 9, equivalency to control G7
Description: as §1, §3

[10] = system: IL-12; test: Level of inflammatory cytokine IL-12; conditions: G3 to G6 (12.5-100 mg/kg), FIG. 10, equivalency to control G7
Description: as §1, §3

[11] = system: Malondialdehyde (MDA); test: Anti-oxidant activity: malondialdehyde (MDA), lipid peroxidation
From the text: as §1
Malondialdehyde (MDA), accounting for the degree of lipid peroxidation, a representative marker of oxidation stress, was quantified.

[12] = system: total antioxidant concentration; test: Anti-oxidant activity: total antioxidant concentrations in tissues; conditions: G3 (12.5 mg/kg) compared to the DSS-treated group
From the text: as §1
Its amount was discovered to decrease at a low concentration of S-allyl-L-cysteine as in G3 and G4, with statistical significance.

Compound: O=C(NC(Cc1cc(=O)[nH]c2ccccc12)C(=O)O)c1ccc(Cl)cc1 (stereo not drawn) [Control, Rebamipide, reference compound]
- Body weight (mean ± standard deviation) ([1]; G7, Control 50 mg/kg, 2012.01.12, at the time of DSS treatment): 23.2 ± 1.2 g
- Body weight (mean ± standard deviation) ([1]; G7, Control 50 mg/kg, 2012.01.18, at autopsy after 7 days DSS 2.5 wt %): 21.1 ± 0.9 g
- COX-2 expression in the fascial tissue beneath the mucosal tissue ([2]; G7 (Control 50 mg/kg), immunofluorescence): did not effectively do so
- COX-2 expression in mucosal tissues ([2]; G7 (Control 50 mg/kg), immunofluorescence, FIG. 13): inhibited COX-2 expression in mucosal tissues
- Side effects (hypersensitive reactions, nausea, vomiting, headache, etc.) ([3]; control G7, extended test period of 12 weeks): side effects detected

Compound: C=CCSC[C@H](N)C(=O)O [Example 1, S-allyl-L-cysteine]
- Body weight (mean ± standard deviation) ([1]; G3, Ex. 1 12.5 mg/kg, 2012.01.12, at the time of DSS treatment, 12.5 mg/kg): 22.1 ± 2.4 g
- Body weight (mean ± standard deviation) ([1]; G3, Ex. 1 12.5 mg/kg, 2012.01.18, at autopsy after 7 days DSS 2.5 wt %, 12.5 mg/kg): 20.3 ± 2.2 g
- Body weight (mean ± standard deviation) ([1]; G4, Ex. 1 25 mg/kg, 2012.01.12, at the time of DSS treatment, 25 mg/kg): 22.8 ± 0.8 g
- Body weight (mean ± standard deviation) ([1]; G4, Ex. 1 25 mg/kg, 2012.01.18, at autopsy after 7 days DSS 2.5 wt %, 25 mg/kg): 20.5 ± 0.9 g
- Body weight (mean ± standard deviation) ([1]; G5, Ex. 1 50 mg/kg, 2012.01.12, at the time of DSS treatment, 50 mg/kg): 22.9 ± 1.1 g
- Body weight (mean ± standard deviation) ([1]; G5, Ex. 1 50 mg/kg, 2012.01.18, at autopsy after 7 days DSS 2.5 wt %, 50 mg/kg): 21.4 ± 0.8 g
- Body weight (mean ± standard deviation) ([1]; G6, Ex. 1 100 mg/kg, 2012.01.12, at the time of DSS treatment, 100 mg/kg): 22.2 ± 1.3 g
- Body weight (mean ± standard deviation) ([1]; G6, Ex. 1 100 mg/kg, 2012.01.18, at autopsy after 7 days DSS 2.5 wt %, 100 mg/kg): 21.6 ± 0.7 g
- Therapeutic effects (DAI, colon length) compared with conventional agent (G7) ([4]; G3 to G6 (12.5-100 mg/kg) vs G7 (Control 50 mg/kg)): equivalent to or higher than those of the conventional agent
- Disease Activity Index (DAI) score ([4]; G3 to G6 (12.5-100 mg/kg), DSS 2.5 wt %, end of test, FIG. 3): score low in DAI
- Colon length [5]: recovered the colon length
- Rehabilitation of mucosal tissues by total pathologic score ([6]; G3 (12.5 mg/kg), FIG. 6): best rehabilitation of mucosal tissues
- Histology of intestinal mucosa tissues (H&E) ([6]; G3 to G6 (12.5-100 mg/kg), FIG. 5): recovered the intestinal mucosa tissues to a normal state
- Total pathologic score (H&E) ([6]; G3 to G6 (12.5-100 mg/kg), FIG. 6): lowered the pathologic score
- Therapeutic effect (pathologic score) compared with control G7 ([6]; G3 to G6 vs G7 (Control 50 mg/kg)): equivalent to or higher than that of the control G7
- Expression level of IL-1β [7]: decreased expression levels
- Expression level of IL-6 [8]: decreased expression levels
- Expression level of TNF-α [9]: decreased expression levels
- Expression level of IL-12 [10]: decreased expression levels
- Amount of malondialdehyde (MDA) ([11]; G3 and G4 (12.5 and 25 mg/kg), with statistical significance): decrease
- Level of MDA ([11]; G3 to G6 (12.5-100 mg/kg), equivalency or superiority to control G7): decreased the level of MDA
- Total antioxidant concentration in tissues [12]: increase in antioxidant concentration
- COX-2 expression level ([2]; G3 (12.5 mg/kg)): significantly increased
- COX-2 expression levels in mucosal tissues ([2]; G3 to G6 (12.5-100 mg/kg), immunofluorescence, FIG. 13): reduced COX-2 expression levels
- COX-2 expression in the fascial tissue ([2]; G4 to G6 (25-100 mg/kg), immunofluorescence): inhibited COX-2 expression even in the fascial tissue
- COX-2 expression level ([2]; other test groups (G4 to G6, 25-100 mg/kg)): significantly decrease
- Side effect of weight gain ([3]; G3 to G6 (12.5-100 mg/kg)): not cause the side effect of weight gain
- Side effects (hypersensitive reactions, nausea, vomiting, headache, etc.) ([3]; G3 to G6, extended test period of 12 weeks): did not suffer from the side effects
